Results as given in ChEMBL document CHEMBL5608163, “Structure modification of anoplin for fighting resistant bacteria” (Eur J Med Chem, 2024).
Converted amounts (≈) assume the structure as drawn. Square brackets hold non-standard residues; d marks the D form. Peptide text beside a SMILES is read from it. 2Nal = N[C@@H](Cc1ccc2ccccc2c1)C(=O)O; Cha = N[C@@H](CC1CCCCC1)C(=O)O

Tests used:
Staphylococcus aureus [1] = assay: Antibacterial activity against Staphylococcus aureus ATCC 25923 assessed as reduction in bacterial growth measured after 18 to 24 hrs by CLSI protocol-based Mueller-Hinton broth dilution method; format: functional; settings: time 18-24 hrs
Bacillus subtilis [2] = assay: Antibacterial activity against Bacillus subtilis ATCC 23857 assessed as reduction in bacterial growth measured after 18 to 24 hrs by CLSI protocol-based Mueller-Hinton broth dilution method; format: functional; settings: time 18-24 hrs
Escherichia coli [3] = assay: Antibacterial activity against multi-drug resistant Escherichia coli clinical isolate 850 assessed as reduction in bacterial growth measured after 18 to 24 hrs by CLSI protocol-based Mueller-Hinton broth dilution method; format: functional; settings: time 18-24 hrs
Pseudomonas aeruginosa [4] = assay: Antibacterial activity against multi-drug resistant Pseudomonas aeruginosa clinical isolate 119 assessed as reduction in bacterial growth measured after 18 to 24 hrs by CLSI protocol-based Mueller-Hinton broth dilution method; format: functional; settings: time 18-24 hrs
Klebsiella pneumoniae = assay: Antibacterial activity against Klebsiella pneumoniae ATCC 700603 assessed as reduction in bacterial growth measured after 18 to 24 hrs by CLSI protocol-based Mueller-Hinton broth dilution method; format: functional; settings: time 18-24 hrs
Acinetobacter baumannii = assay: Antibacterial activity against multi-drug resistant Acinetobacter baumannii clinical isolate 9840 assessed as reduction in bacterial growth measured after 18 to 24 hrs by CLSI protocol-based Mueller-Hinton broth dilution method; format: functional; settings: time 18-24 hrs
[5] = Hemolytic activity in human RBC; format: toxicity, cell-based, Erythrocyte; settings: red blood cells
Staphylococcus aureus [6] = assay: Antibacterial activity against methicillin-resistant Staphylococcus aureus ATCC 33591 assessed as reduction in bacterial growth incubated for 16 to 24 hrs by agar dilution method; format: functional; settings: time 16-24 hrs
Enterococcus faecium = assay: Antibacterial activity against vancomycin resistant Enterococcus faecium NCTC 12204 assessed as reduction in bacterial growth by microdilution broth method; format: functional
Escherichia coli [7] = assay: Antibacterial activity against Escherichia coli ATCC 25922 assessed as reduction in bacterial growth incubated for 18 to 24 hrs by broth microdilution method; format: functional; settings: time 18-24 hrs
Pseudomonas aeruginosa [8] = assay: Antibacterial activity against Pseudomonas aeruginosa ATCC 15442 assessed as reduction in bacterial cell growth incubated for 18 to 24 hrs by two fold serial microdilution method; format: functional; settings: time 18-24 hrs
[9] = Hemolytic activity against Red blood cells (unknown origin) incubated for 1 hr by spectrophotometric analysis; format: toxicity, cell-based, Erythrocyte
[10] = system: Mycolicibacterium smegmatis; assay: Antimycobacterial activity against Mycobacterium smegmatis mc2 155 assessed as reduction in bacterial cell growth incubated for 24 hrs by resazurin dye based broth microdilution method; format: functional
Bacillus subtilis [11] = assay: Antimicrobial activity against Bacillus subtilis assessed as microbial growth inhibition incubated for 24 hrs by broth micro-dilution method; format: functional
Escherichia coli [12] = assay: Antibacterial acitivity against Escherichia coli DH5a assessed as bacterial growth inhibition incubated for 24 hrs by broth micro-dilution method; format: functional
Zymomonas mobilis = assay: Antibacterial activity against Zymomonas mobilis ATCC 10988 assessed as reduction in bacterial growth incubated for 24 hrs by broth micro-dilution method; format: functional
Pseudomonas aeruginosa [13] = assay: Antimicrobial activity against Pseudomonas aeruginosa assessed as inhibition of microbial growth incubated for 24 hrs by microdilution method; format: functional
[14] = Hemolytic activity against human Red blood cells assessed as cell lysis; format: toxicity, cell-based, Erythrocyte

| Structure (SMILES) | HC50 [5] [µM] | MIC (Staphylococcus aureus [6]) [µM] | MIC (Enterococcus faecium) [µM] | MIC (Escherichia coli [7]) [µM] | MIC (Pseudomonas aeruginosa [8]) [µM] | HC50 at 1 h [9] [µM] | MIC [10] [µM] | MIC (Bacillus subtilis [11]) [µM] | MIC (Escherichia coli [12]) [µM] | MIC (Zymomonas mobilis) [µM] | MIC (Pseudomonas aeruginosa [13]) [µM] | HC50 [14] [µM] | further results |
| --- | --- | --- | --- | --- | --- | --- | --- | --- | --- | --- | --- | --- | --- |
| CC[C@H](C)[C@H](NC(=O)[C@H](CCCNC(=N)N)NC(=O)[C@H](CCCCN)NC(=O)[C@@H](CC(C)C)NC(=O)[C@H](CC(C)C)NC(=O)CNC(C)=O)C(=O)N[C@@H](CCCCN)C(=O)N[C@H](C(=O)N[C@H](CC(C)C)C(=O)N[C@H](CC(C)C)C(=O)NC(Cc1cn(CCCC[C@H](NC(=O)[C@H](CC(C)C)NC(=O)[C@H](CC(C)C)NC(=O)[C@@H](NC(=O)[C@@H](CCCCN)NC(=O)[C@@H](NC(=O)[C@H](CCCNC(=N)N)NC(=O)[C@@H](CCCCN)NC(=O)[C@H](CC(C)C)NC(=O)[C@H](CC(C)C)NC(=O)CNC(C)=O)[C@@H](C)CC)[C@@H](C)O)C(N)=O)nn1)C(N)=O)[C@@H](C)O (some centres not stated) | – | – | – | – | – | – | – | – | – | – | – | – | MIC (Staphylococcus aureus [1]): 32 µM (≈ 84.5 µg/mL); MIC (Bacillus subtilis [2]): 2 µM (≈ 5.28 µg/mL); MIC (Escherichia coli [3]): 4 µM (≈ 10.6 µg/mL); MIC (Pseudomonas aeruginosa [4]): 16 µM (≈ 42.2 µg/mL); MIC (Klebsiella pneumoniae): 16 µM (≈ 42.2 µg/mL); MIC (Acinetobacter baumannii): 2 µM (≈ 5.28 µg/mL) |
| CC[C@H](C)[C@H](NC(=O)[C@H](CCCNC(=N)N)NC(=O)[C@H](CCCCN)NC(=O)[C@@H](CC(C)C)NC(=O)[C@H](CC(C)C)NC(=O)CNC(C)=O)C(=O)N[C@@H](CCCCN)C(=O)N[C@H](C(=O)N[C@H](CC(C)C)C(=O)N[C@H](CC(C)C)C(=O)NC(Cc1cn(CCCC[C@H](NC(C)=O)C(=O)NCC(=O)N[C@@H](CC(C)C)C(=O)N[C@@H](CC(C)C)C(=O)N[C@H](CCCCN)C(=O)N[C@@H](CCCNC(=N)N)C(=O)N[C@H](C(=O)N[C@H](CCCCN)C(=O)N[C@H](C(=O)N[C@@H](CC(C)C)C(=O)N[C@@H](CC(C)C)C(N)=O)[C@@H](C)O)[C@@H](C)CC)nn1)C(N)=O)[C@@H](C)O (some centres not stated) | – | – | – | – | – | – | – | – | – | – | – | – | MIC (Staphylococcus aureus [1]): 32 µM (≈ 84.5 µg/mL); MIC (Bacillus subtilis [2]): 2 µM (≈ 5.28 µg/mL); MIC (Escherichia coli [3]): 4 µM (≈ 10.6 µg/mL); MIC (Pseudomonas aeruginosa [4]): 16 µM (≈ 42.2 µg/mL); MIC (Klebsiella pneumoniae): 8 µM (≈ 21.1 µg/mL); MIC (Acinetobacter baumannii): 2 µM (≈ 5.28 µg/mL) |
| CC(C)C[C@H](NC(=O)[C@H](CC(C)C)NC(=O)[C@H](CCCCN)NC(=O)[C@H](CCCCN)NC(=O)[C@H](Cc1ccc2ccccc2c1)NC(=O)[C@H](CCCNC(=N)N)NC(=O)[C@H](CCCCN)NC(=O)[C@H](CC(C)C)NC(=O)[C@H](CCCCN)NC(=O)CN)C(N)=O (H-GKLKR[2Nal]KKLL-NH2) | 50.1 | 41 (≈ 52.5 µg/mL) | 13.7 (≈ 17.5 µg/mL) | 9.5 (≈ 12.2 µg/mL) | 9.5 (≈ 12.2 µg/mL) | 50.1 | – | – | – | – | – | – | – |
| CC[C@H](C)[C@H](NC(=O)[C@H](CCCNC(=N)N)NC(=O)[C@H](CCCCN)NC(=O)[C@H](CCCCN)NC(=O)[C@H](CC(C)C)NC(=O)CN)C(=O)N[C@@H](CCCCN)C(=O)N[C@@H](CCCCN)C(=O)N[C@@H](CC(C)C)C(=O)N[C@@H](CC(C)C)C(N)=O (H-GLKKRIKKLL-NH2) | – | – | – | – | – | – | 13 (≈ 15.5 µg/mL) | 13 (≈ 15.5 µg/mL) | > 174 | 12.6 (≈ 15.1 µg/mL) | 13 | > 174 | – |
| CC[C@H](C)[C@H](NC(=O)[C@H](Cc1ccccc1)NC(=O)[C@H](CCCCN)NC(=O)[C@H](CC(C)C)NC(=O)[C@H](CC(C)C)NC(=O)CN)C(=O)N[C@@H](CCCCN)C(=O)N[C@@H](CCCNC(=N)N)C(=O)N[C@@H](CC(C)C)C(=O)N[C@@H](CC(C)C)C(N)=O (H-GLLKFIKRLL-NH2) | – | – | – | – | – | – | 4.2 (≈ 5.04 µg/mL) | 167 (≈ 200 µg/mL) | 167 (≈ 200 µg/mL) | 17.4 (≈ 20.9 µg/mL) | 2.5 | > 167 | – |
| CC[C@H](C)[C@H](NC(=O)[C@H](CCCCN)NC(=O)[C@H](CC(C)C)NC(=O)[C@H](CC(C)C)NC(=O)CN)C(=O)N[C@H](C(=O)N[C@@H](CCCCN)C(=O)N[C@@H](CCCCN)C(=O)N[C@@H](CC(C)C)C(=O)N[C@@H](CC(C)C)C(N)=O)[C@@H](C)CC (H-GLLKIIKKLL-NH2) | – | – | – | – | – | – | 16.7 (≈ 19 µg/mL) | 5.9 (≈ 6.71 µg/mL) | 83.7 (≈ 95.2 µg/mL) | 2.5 (≈ 2.84 µg/mL) | 2.5 | > 167 | – |
| CC[C@H](C)[C@H](NC(=O)[C@H](CCCCN)NC(=O)[C@H](CC(C)C)NC(=O)[C@H](CC(C)C)NC(=O)CN)C(=O)N[C@H](C(=O)N[C@@H](CCCCN)C(=O)N[C@@H](CCCNC(=N)N)C(=O)N[C@@H](CC(C)C)C(=O)N[C@@H](CC(C)C)C(N)=O)[C@@H](C)CC (H-GLLKIIKRLL-NH2) | – | – | – | – | – | – | 4.3 (≈ 5.01 µg/mL) | 8.6 (≈ 10 µg/mL) | 172 (≈ 200 µg/mL) | 33.9 (≈ 39.5 µg/mL) | 2.6 | > 172 | – |
| CC[C@H](C)[C@H](NC(=O)[C@H](CCCCN)NC(=O)[C@H](CCCCN)NC(=O)[C@H](CC(C)C)NC(=O)[C@H](CC(C)C)NC(=O)CN)C(=O)N[C@@H](CCCCN)C(=O)N[C@@H](CCCNC(=N)N)C(=O)N[C@@H](CC(C)C)C(=O)N[C@@H](CC(C)C)C(N)=O (H-GLLKKIKRLL-NH2) | – | – | – | – | – | – | 0.9 (≈ 1.06 µg/mL) | 170 (≈ 200 µg/mL) | 170 (≈ 200 µg/mL) | 4.2 (≈ 4.96 µg/mL) | 5.9 | > 170 | – |
| CC(C)C[C@H](NC(=O)CN)C(=O)N[C@@H](CC(C)C)C(=O)N[C@@H](CCCCN)C(=O)N[C@@H](CCCCN)C(=O)N[C@@H](Cc1ccc2ccccc2c1)C(=O)N[C@@H](CCCCN)C(=O)N[C@H](C(=O)N[C@@H](CC(C)C)C(=O)N[C@@H](CC1CCCCC1)C(N)=O)[C@@H](C)O (H-GLLKK[2Nal]KTL[Cha]-NH2) | 26.6 | 9.5 (≈ 11.9 µg/mL) | 4.6 (≈ 5.75 µg/mL) | 9.5 (≈ 11.9 µg/mL) | 6.6 (≈ 8.25 µg/mL) | 26.6 | – | – | – | – | – | – | – |
| CC[C@H](C)[C@H](NC(=O)[C@H](CCCNC(=N)N)NC(=O)[C@H](CCCCN)NC(=O)[C@H](CC(C)C)NC(=O)[C@H](CC(C)C)NC(=O)CN)C(=O)N[C@@H](CCCCN)C(=O)N[C@@H](CCCCN)C(=O)N[C@@H](CC(C)C)C(=O)N[C@@H](CC1CCCCC1)C(N)=O (H-GLLKRIKKL[Cha]-NH2) | 12.4 | 9.5 (≈ 11.6 µg/mL) | 9.5 (≈ 11.6 µg/mL) | 9.5 (≈ 11.6 µg/mL) | 4.6 (≈ 5.62 µg/mL) | 12.4 | – | – | – | – | – | – | – |
| CC[C@H](C)[C@H](NC(=O)[C@H](CCCCN)NC(=O)[C@H](CCCCN)NC(=O)[C@H](CC(C)C)NC(=O)[C@H](CC1CCCCC1)NC(=O)CN)C(=O)N[C@@H](CCCCN)C(=O)N[C@@H](CCCCN)C(=O)N[C@@H](CC(C)C)C(=O)N[C@@H](CC1CCCCC1)C(N)=O (H-G[Cha]LKKIKKL[Cha]-NH2) | 0.5 | 3.2 (≈ 3.94 µg/mL) | 3.2 (≈ 3.94 µg/mL) | 4.6 (≈ 5.67 µg/mL) | 3.2 (≈ 3.94 µg/mL) | 0.5 | – | – | – | – | – | – | – |
| CC(C)C[C@H](NC(=O)[C@H](CC(C)C)NC(=O)[C@@H](NC(=O)[C@H](CCCCN)NC(=O)[C@H](Cc1ccc2ccccc2c1)NC(=O)[C@H](CCCCN)NC(=O)[C@H](CCCCN)NC(=O)[C@H](CC(C)C)NC(=O)[C@H](CC1CCCCC1)NC(=O)CN)[C@@H](C)O)C(N)=O (H-G[Cha]LKK[2Nal]KTLL-NH2) | 15.3 | 28.4 (≈ 35.5 µg/mL) | 9.5 (≈ 11.9 µg/mL) | 9.5 (≈ 11.9 µg/mL) | 9.5 (≈ 11.9 µg/mL) | 15.3 | – | – | – | – | – | – | – |
